Article doi:10.1101/2025.01.28.635346v1 (bioRxiv, 2025)
pEC50, pIC50: −log10 of the molar value. Bridge positions count the residues as written; N and C are the ends. Side chains are listed from the residue outwards. Peptide text beside a SMILES is read from it. * marks the point of attachment. Butanoyl(4-(4-I-phenyl)) = O=C(CCCc1ccc(I)cc1)*; PEG2 = NCCOCCOCCC(=O)O

Columns and labels:
KvLQT1/minK = KvLQT1/minK (Homo sapiens, UniProt P15382+P51787); experiment: Safetyscan47 Ion Channel, Opener; assay type: cell-based; conditions: for Emax: read-out: Max Response
ADRA2A = biological target: T1, ADRA2A (Homo sapiens, UniProt P08913); experiment: Safetyscan47 GPCR cAMP, Agonist; assay type: cell-based; conditions: for Emax: read-out: Max Response
T1 sequence (P08913 1-465): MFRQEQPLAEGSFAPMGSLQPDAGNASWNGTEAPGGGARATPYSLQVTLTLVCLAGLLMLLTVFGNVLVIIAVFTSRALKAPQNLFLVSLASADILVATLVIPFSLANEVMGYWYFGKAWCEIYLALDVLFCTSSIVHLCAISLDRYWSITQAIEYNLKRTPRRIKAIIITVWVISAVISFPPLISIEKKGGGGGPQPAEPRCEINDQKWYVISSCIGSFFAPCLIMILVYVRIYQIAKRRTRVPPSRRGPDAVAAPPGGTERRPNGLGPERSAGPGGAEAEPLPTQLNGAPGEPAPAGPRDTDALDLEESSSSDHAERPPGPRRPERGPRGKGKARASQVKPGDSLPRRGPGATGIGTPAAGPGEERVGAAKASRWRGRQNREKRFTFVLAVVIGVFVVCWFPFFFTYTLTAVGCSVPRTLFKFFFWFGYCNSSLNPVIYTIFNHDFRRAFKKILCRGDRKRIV

CNR1 = CNR1 (Homo sapiens, UniProt P21554); experiment: Safetyscan47 GPCR cAMP, Antagonist; assay type: cell-based; conditions: for Emax: read-out: Max Response
OPRD1 [1] = biological target: T2, OPRD1 (Homo sapiens, UniProt P41143); experiment: Safetyscan47 GPCR cAMP, Antagonist; assay type: cell-based; conditions: for Emax: read-out: Max Response
DRD2S = DRD2S (Homo sapiens, UniProt P14416); experiment: Safetyscan47 GPCR cAMP, Antagonist; assay type: cell-based; conditions: for Emax: read-out: Max Response
OPRD1 [2] = biological target: T2, OPRD1; experiment: Safetyscan47 GPCR cAMP, Agonist; assay type: cell-based; conditions: for Emax: read-out: Max Response
ROCK1 = ROCK1 (Homo sapiens, UniProt Q13464); experiment: Safetyscan47 Kinases Binding, Inhibitor; conditions: for Emax: read-out: Max Response
DAT = DAT (Homo sapiens, UniProt Q01959); experiment: Safetyscan47 Transporter, Blocker; assay type: cell-based; conditions: for Emax: read-out: Max Response
HRH1 [3] = biological target: T3, HRH1 (Homo sapiens, UniProt P35367); experiment: Safetyscan47 GPCR Calcium Flux, Agonist; assay type: cell-based; conditions: for Emax: read-out: Max Response
nAChR(a4/b2) = nAChR(a4/b2) (Homo sapiens, UniProt P17787+P43681); experiment: Safetyscan47 Ion Channel, Opener; assay type: cell-based; conditions: for Emax: read-out: Max Response
integrin αvβ8 = integrin αvβ8 (Homo sapiens, UniProt P06756+P26012); experiment: ELISA competition assay, integrin αvβ8 binding to LAP
HRH1 [4] = biological target: T3, HRH1; experiment: Safetyscan47 GPCR Calcium Flux, Antagonist; assay type: cell-based; conditions: for Emax: read-out: Max Response
integrin αvβ5 = integrin αvβ5 (Homo sapiens, UniProt P06756+P18084); experiment: ELISA competition assay, integrin αvβ5; assay type: binding
NMDAR (1A/2B) = NMDAR (1A/2B) (Homo sapiens, UniProt Q05586+Q13224); experiment: Safetyscan47 Ion Channel, Blocker; assay type: cell-based; conditions: for Emax: read-out: Max Response
HRH2 = HRH2 (Homo sapiens, UniProt P25021); experiment: Safetyscan47 GPCR cAMP, Antagonist; assay type: cell-based; conditions: for Emax: read-out: Max Response
CCKAR = biological target: T4, CCKAR (Homo sapiens, UniProt P32238); experiment: Safetyscan47 GPCR Calcium Flux, Antagonist; assay type: cell-based; conditions: for Emax: read-out: Max Response
T4 sequence (P32238 1-428): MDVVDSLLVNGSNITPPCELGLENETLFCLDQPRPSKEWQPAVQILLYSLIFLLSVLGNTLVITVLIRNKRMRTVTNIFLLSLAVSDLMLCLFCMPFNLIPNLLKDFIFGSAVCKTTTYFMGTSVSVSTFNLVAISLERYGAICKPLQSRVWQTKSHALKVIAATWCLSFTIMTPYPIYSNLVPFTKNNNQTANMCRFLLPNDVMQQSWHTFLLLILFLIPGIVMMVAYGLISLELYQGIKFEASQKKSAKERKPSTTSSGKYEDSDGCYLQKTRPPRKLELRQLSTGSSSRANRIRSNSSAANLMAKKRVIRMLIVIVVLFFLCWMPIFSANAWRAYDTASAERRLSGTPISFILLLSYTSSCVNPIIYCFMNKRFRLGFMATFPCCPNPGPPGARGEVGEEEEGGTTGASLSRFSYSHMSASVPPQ

ADORA2A = ADORA2A (Homo sapiens, UniProt P29274); experiment: Safetyscan47 GPCR Calcium Flux, Antagonist; assay type: cell-based; conditions: for Emax: read-out: Max Response
EDNRA = biological target: T5, EDNRA (Homo sapiens, UniProt P25101); experiment: Safetyscan47 GPCR Calcium Flux, Antagonist; assay type: cell-based; conditions: for Emax: read-out: Max Response
T5 sequence (P25101 21-427): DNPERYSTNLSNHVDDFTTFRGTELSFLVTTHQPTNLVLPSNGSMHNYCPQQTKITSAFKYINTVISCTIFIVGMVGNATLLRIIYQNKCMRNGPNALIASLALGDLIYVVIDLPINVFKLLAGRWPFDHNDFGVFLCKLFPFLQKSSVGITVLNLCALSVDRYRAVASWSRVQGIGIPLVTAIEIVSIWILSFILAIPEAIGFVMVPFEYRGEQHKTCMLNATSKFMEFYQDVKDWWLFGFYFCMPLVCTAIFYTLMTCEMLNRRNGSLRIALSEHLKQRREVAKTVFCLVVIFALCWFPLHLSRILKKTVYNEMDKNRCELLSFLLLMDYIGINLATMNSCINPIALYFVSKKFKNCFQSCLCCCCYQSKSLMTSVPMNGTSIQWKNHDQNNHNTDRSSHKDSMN

Compound: CC[C@H](C)[C@H](NC(=O)[C@H](CC(C)C)NC(=O)[C@H](CC(=O)O)NC(=O)CNC(=O)[C@H](CCCNC(=N)N)NC(=O)[C@@H](NC(=O)[C@H](Cc1ccccc1)NC(=O)[C@H](Cc1ccc(O)cc1)NC(=O)[C@@H]1CCC(=O)NCC(=O)NCC(=O)N[C@@H](CCCNC(=N)N)C(=O)NCC(=O)N[C@@H](Cc2c[nH]cn2)C(=O)N[C@@H](C(C)C)C(=O)N2CCC[C@H]2C(=O)N1)C(C)C)C(=O)N[C@@H](CO)C(=O)N[C@@H](Cc1ccccc1)C(=O)N[C@@H](Cc1ccc(O)cc1)C(=O)N[C@@H](CCCCN)C(=O)O [lassotide 36] (GGRGHVPEYFVRGDLISFYK-OH; lactam N-8)
- pEC50 (KvLQT1/minK): < 4.35
- Emax (KvLQT1/minK): 0%
- pEC50 (ADRA2A): < 4.35
- Emax (ADRA2A): 0.3%
- pIC50 (CNR1): < 4.35
- Emax (CNR1): 9.79%
- pIC50 (OPRD1 [1]; RC50, Antagonist, Result Type IC50): < 4.35
- Emax (OPRD1 [1]): 0%
- pIC50 (DRD2S): < 4.35
- Emax (DRD2S): 0%
- pEC50 (OPRD1 [2]): < 4.35
- Emax (OPRD1 [2]): 6.18%
- pIC50 (ROCK1): < 4.35
- Emax (ROCK1): 19%
- pIC50 (DAT): < 4.35
- Emax (DAT): 29.8%
- pEC50 (HRH1 [3]): < 4.35
- Emax (HRH1 [3]): 2.03%
- pEC50 (nAChR(a4/b2)): < 4.35
- Emax (nAChR(a4/b2)): 11%
- pIC50 (integrin αvβ8): 7.82
- pIC50 (HRH1 [4]): < 4.35
- Emax (HRH1 [4]): 0.3%
- pIC50 (integrin αvβ5): < 5.00
- pIC50 (NMDAR (1A/2B)): < 4.35
- Emax (NMDAR (1A/2B)): 0%
- pIC50 (HRH2): < 4.35
- Emax (HRH2): 2.58%
- pIC50 (CCKAR): < 4.35
- Emax (CCKAR): 3.61%
- pIC50 (ADORA2A): < 4.35
- Emax (ADORA2A): 0%
- pIC50 (EDNRA): < 4.35
- Emax (EDNRA): 2.52%

Compound: CC[C@H](C)[C@H](NC(=O)[C@H](CC(C)C)NC(=O)[C@H](CC(=O)O)NC(=O)CNC(=O)[C@H](CCCNC(=N)N)NC(=O)[C@@H](NC(=O)[C@H](Cc1ccccc1)NC(=O)[C@H](Cc1ccc(O)cc1)NC(=O)[C@@H]1CCC(=O)NCC(=O)NCC(=O)N[C@@H](CCCNC(=N)N)C(=O)NCC(=O)N[C@@H](Cc2c[nH]cn2)C(=O)N[C@@H](C(C)C)C(=O)N2CCC[C@H]2C(=O)N1)C(C)C)C(=O)N[C@@H](CO)C(=O)N[C@@H](Cc1ccccc1)C(=O)N[C@@H](Cc1ccc(O)cc1)C(=O)N[C@@H](CCCCNC(=O)CCOCCOCCNC(=O)CCCc1ccc(I)cc1)C(=O)O [lassotide 47] (GGRGHVPEYFVRGDLISFYK([PEG2-Butanoyl(4-(4-I-phenyl))])-OH; lactam N-8)
- pEC50 (KvLQT1/minK): < 4.35
- Emax (KvLQT1/minK): 0%
- pEC50 (ADRA2A): < 4.35
- Emax (ADRA2A): 30.2%
- pIC50 (CNR1): < 4.35
- Emax (CNR1): 0%
- pIC50 (OPRD1 [1]; RC50 (IC50), GPCR cAMP, Antagonist, OPRD1): 4.39
- Emax (OPRD1 [1]): 56.4%
- pIC50 (DRD2S): < 4.35
- Emax (DRD2S): 0%
- pEC50 (OPRD1 [2]): < 4.35
- Emax (OPRD1 [2]): 17.4%
- pIC50 (ROCK1): < 4.35
- Emax (ROCK1): 2.56%
- pIC50 (DAT): < 4.35
- Emax (DAT): 13%
- pEC50 (HRH1 [3]): < 4.35
- Emax (HRH1 [3]): 0%
- pEC50 (nAChR(a4/b2)): < 4.35
- Emax (nAChR(a4/b2)): 0%
- pIC50 (integrin αvβ8): 8.10
- pIC50 (HRH1 [4]): < 4.35
- Emax (HRH1 [4]): 0%
- pIC50 (integrin αvβ5): < 5.00
- pIC50 (NMDAR (1A/2B)): < 4.35
- Emax (NMDAR (1A/2B)): 0%
- pIC50 (HRH2): < 4.35
- Emax (HRH2): 30%
- pIC50 (CCKAR): < 4.35
- Emax (CCKAR): 3.35%
- pIC50 (ADORA2A): < 4.35
- Emax (ADORA2A): 7.44%
- pIC50 (EDNRA): < 4.35
- Emax (EDNRA): 0%
